We go through 2 compounds from ChEMBL document CHEMBL4765247, “Novel mouse GABA uptake inhibitors with enhanced inhibitory activity toward mGAT3/4 and their effect on pain threshold in mice” (Eur J Med Chem, 2020).

In test [1] the target is Sodium- and chloride-dependent GABA transporter 1 (Homo sapiens, UniProt P30531). The experiment in a line: Inhibition of human […] expressed in tsA201 cells assessed as inhibition of [3H]GABA uptake by liquid scintillation method. Type of test: cell-based.
Test [2] addresses T1, Sodium- and chloride-dependent betaine transporter (Homo sapiens, UniProt P48065).
T1 sequence (P48065 whole entry): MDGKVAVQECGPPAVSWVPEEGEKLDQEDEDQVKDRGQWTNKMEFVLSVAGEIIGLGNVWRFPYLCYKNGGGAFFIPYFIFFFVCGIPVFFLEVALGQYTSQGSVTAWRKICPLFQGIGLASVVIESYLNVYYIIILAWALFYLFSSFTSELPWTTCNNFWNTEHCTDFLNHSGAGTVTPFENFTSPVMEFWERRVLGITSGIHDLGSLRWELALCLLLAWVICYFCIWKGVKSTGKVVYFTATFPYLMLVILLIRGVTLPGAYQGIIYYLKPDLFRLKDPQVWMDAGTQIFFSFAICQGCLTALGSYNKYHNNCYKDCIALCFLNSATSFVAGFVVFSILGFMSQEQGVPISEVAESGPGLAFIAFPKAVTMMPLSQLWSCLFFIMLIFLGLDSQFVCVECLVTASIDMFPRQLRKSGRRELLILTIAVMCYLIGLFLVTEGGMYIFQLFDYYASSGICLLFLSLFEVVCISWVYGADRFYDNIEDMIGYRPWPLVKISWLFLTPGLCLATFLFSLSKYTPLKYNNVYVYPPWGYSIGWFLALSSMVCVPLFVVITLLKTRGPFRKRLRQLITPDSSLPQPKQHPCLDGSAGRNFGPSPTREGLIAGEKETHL
As to the kind of experiment: Inhibition of human BGT1 expressed in tsA201 cells assessed as inhibition of [3H]GABA uptake by liquid scintillation method. Type of test: cell-based.

Test [3] has as its target T2, Sodium- and chloride-dependent GABA transporter 2 (Homo sapiens, UniProt Q9NSD5).
T2 sequence (Q9NSD5 whole entry): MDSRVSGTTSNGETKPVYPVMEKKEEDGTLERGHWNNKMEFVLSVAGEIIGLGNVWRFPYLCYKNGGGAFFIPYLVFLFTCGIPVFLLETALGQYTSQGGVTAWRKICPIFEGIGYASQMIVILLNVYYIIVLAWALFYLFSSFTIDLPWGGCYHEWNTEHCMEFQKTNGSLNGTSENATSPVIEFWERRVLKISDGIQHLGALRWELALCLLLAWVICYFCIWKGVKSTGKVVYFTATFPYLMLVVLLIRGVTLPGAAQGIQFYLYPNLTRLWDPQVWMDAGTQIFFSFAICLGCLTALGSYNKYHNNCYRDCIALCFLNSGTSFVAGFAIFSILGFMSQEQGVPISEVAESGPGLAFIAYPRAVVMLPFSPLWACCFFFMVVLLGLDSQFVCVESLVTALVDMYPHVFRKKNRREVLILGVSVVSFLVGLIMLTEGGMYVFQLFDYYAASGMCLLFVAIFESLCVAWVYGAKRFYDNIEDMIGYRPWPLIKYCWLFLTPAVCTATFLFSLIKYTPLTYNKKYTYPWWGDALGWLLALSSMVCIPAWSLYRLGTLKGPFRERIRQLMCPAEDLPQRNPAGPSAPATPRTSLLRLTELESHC
The experiment in a line: Inhibition of human […] expressed in tsA201 cells assessed as inhibition of [3H]GABA uptake by liquid scintillation method. Type of test: cell-based.

The target of test [4] is T3, Sodium- and chloride-dependent GABA transporter 3 (Homo sapiens, UniProt P48066).
T3 sequence (P48066 whole entry): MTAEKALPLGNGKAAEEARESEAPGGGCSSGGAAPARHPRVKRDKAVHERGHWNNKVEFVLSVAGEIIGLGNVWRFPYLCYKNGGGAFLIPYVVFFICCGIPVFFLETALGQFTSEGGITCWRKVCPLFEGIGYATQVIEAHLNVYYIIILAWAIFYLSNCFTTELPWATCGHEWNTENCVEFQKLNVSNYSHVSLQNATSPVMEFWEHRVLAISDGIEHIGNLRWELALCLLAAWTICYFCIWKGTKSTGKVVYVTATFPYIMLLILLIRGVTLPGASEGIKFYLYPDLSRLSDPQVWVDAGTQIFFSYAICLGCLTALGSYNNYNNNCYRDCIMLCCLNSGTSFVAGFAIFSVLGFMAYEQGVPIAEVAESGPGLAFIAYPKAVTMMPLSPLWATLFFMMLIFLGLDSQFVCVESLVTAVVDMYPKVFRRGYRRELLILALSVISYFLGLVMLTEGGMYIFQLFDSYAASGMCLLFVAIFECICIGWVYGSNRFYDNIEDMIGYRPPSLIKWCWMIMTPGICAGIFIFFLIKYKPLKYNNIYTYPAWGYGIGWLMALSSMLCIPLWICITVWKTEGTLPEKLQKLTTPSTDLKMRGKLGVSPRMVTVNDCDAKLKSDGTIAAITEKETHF
The experiment in a line: Inhibition of human […] expressed in tsA201 cells assessed as inhibition of [3H]GABA uptake by liquid scintillation method. Type of test: cell-based.

In test [5] the target is GABA transporter 3 (Mus musculus, Slc6a13). The experiment in a line: Inhibition of mouse GAT3 expressed in HEK293 cell line assessed as inhibition of [3H]GABA uptake measured after 35 mins by liquid scintillation method.
The target in test [6] is Betaine/GABA transporter BGT1 (Mus musculus, Slc6a12). As to the kind of experiment: Inhibition of mouse GAT2 expressed in HEK293 cell line assessed as inhibition of [3H]GABA uptake measured after 35 mins by liquid scintillation method.

Sodium- and chloride-dependent GABA transporter 1, sequence (P30531 whole entry): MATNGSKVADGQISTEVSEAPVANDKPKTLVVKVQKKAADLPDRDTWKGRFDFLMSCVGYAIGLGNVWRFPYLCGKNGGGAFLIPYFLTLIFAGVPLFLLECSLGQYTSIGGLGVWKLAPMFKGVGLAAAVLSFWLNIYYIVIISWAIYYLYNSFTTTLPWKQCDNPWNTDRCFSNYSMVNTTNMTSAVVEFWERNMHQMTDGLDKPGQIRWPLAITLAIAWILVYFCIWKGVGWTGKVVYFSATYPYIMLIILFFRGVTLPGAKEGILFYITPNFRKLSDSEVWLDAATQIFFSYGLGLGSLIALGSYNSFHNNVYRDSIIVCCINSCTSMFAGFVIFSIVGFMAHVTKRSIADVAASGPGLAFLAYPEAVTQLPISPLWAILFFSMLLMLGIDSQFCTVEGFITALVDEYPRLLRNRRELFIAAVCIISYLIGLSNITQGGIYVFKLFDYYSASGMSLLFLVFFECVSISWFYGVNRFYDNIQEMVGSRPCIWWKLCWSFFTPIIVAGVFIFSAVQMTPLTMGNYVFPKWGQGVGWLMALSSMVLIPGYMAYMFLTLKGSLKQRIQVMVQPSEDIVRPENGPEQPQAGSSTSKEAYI

As for `NCC(N)C(=O)O` (stereo unspecified), the IC50 in test [1] was more than 1000 µM; in test [2], 631 µM; in test [3] it was 39.8 µM; in test [4] it was 31.6 µM.
Turning to `COc1ccc(C(OCCN2CCC[C@H](C(=O)O)C2)(c2ccc(OC)cc2)c2ccc(OC)cc2C)cc1`, the pIC50 in test [5] is reported as 4.85; in test [6] it was 4.12.
